Assay results taken from the supplement of paper PMC10307832.

How the values were obtained:
Assay in all cases: relative viability (nuclei count vs DMSO), 5 days (fraction); higher = more cells survive
[1] = compound: C#Cc1cccc(Nc2ncnc3cc(OC)c(OCCCCCCC(=O)NO)cc23)c1 [CUDC-101] + N=C(N)NC(=N)NCCc1ccccc1 [Phenformin] (partner 250 µM)
Procedure, shortened: (§1)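 Dosing by pin tool came one day after lung cancer cell lines were seeded in 1536-well plates, using either one drug or a fixed anchor-drug dose plus five library-drug doses (not always all listed) in √10 steps. After 5 days, nuclei were counted on 4× images. Relative viability is treated-well nuclei count divided by vehicle-well nuclei count, and values are medians of duplicate plates.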

[2] = compound: COc1cc2/c(=N/c3ccc(Br)cc3F)nc[nH]c2cc1OCC1CCN(C)CC1 [Vandetanib] + CC(=O)c1c(C)c2cnc(Nc3ccc(N4CCNCC4)cn3)nc2n(C2CCCC2)c1=O [Palbociclib] (partner 0.5 µM)
Procedure, shortened: as §1

[3] = compound: C#Cc1cccc(Nc2ncnc3cc(OC)c(OCCCCCCC(=O)NO)cc23)c1 [CUDC-101] + CCNC(=O)c1noc(-c2cc(C(C)C)c(O)cc2O)c1-c1ccc(CN2CCOCC2)cc1 [Luminespib] (partner 0.01 µM)
Procedure, shortened: as §1

[4] = compound: COc1cc2/c(=N/c3ccc(Br)cc3F)nc[nH]c2cc1OCC1CCN(C)CC1 [Vandetanib] + Cc1nc(Nc2ncc(C(=O)Nc3c(C)cccc3Cl)s2)cc(N2CCN(CCO)CC2)n1 [Dasatinib] (partner 0.075 µM)
Procedure, shortened: as §1

Cell Line	relative viability ([1]; first compound 0.01 µM)	relative viability ([1]; first compound 0.03162 µM)	relative viability ([1]; first compound 0.1 µM)	relative viability ([1]; first compound 0.3162 µM)	relative viability ([1]; first compound 1 µM)	relative viability ([2]; first compound 0.02 µM)	relative viability ([2]; first compound 0.06325 µM)	relative viability ([2]; first compound 0.2 µM)	relative viability ([2]; first compound 0.6325 µM)	relative viability ([2]; first compound 2 µM)	relative viability ([3]; first compound 0.01 µM)	relative viability ([3]; first compound 0.03162 µM)	relative viability ([3]; first compound 0.1 µM)	relative viability ([3]; first compound 0.3162 µM)	relative viability ([3]; first compound 1 µM)	relative viability ([4]; first compound 0.02 µM)	relative viability ([4]; first compound 0.06325 µM)	relative viability ([4]; first compound 0.2 µM)	relative viability ([4]; first compound 0.6325 µM)	relative viability ([4]; first compound 2 µM)
NCI-H1355	0.453	0.431	0.453	0.47	0.387	0.437	0.399	0.408	0.387	0.373	0.729	0.741	0.694	0.676	0.586	0.633	0.723	0.694	0.679	0.775
NCI-H1395	0.495	0.435	0.462	0.466	0.456	0.635	0.602	0.641	0.609	0.567	0.623	0.733	0.906	0.802	0.663	0.349	0.373	0.417	0.405	0.444
NCI-H1437	0.313	0.341	0.275	0.275	0.392	0.295	0.32	0.346	0.302	0.341	1.27	1.06	1.12	1.21	1.19	0.401	0.45	0.254	0.405	0.222
NCI-H1650	0.405	0.313	0.36	0.452	0.188	0.34	0.291	0.289	0.318	0.244	0.25	0.221	0.189	0.166	0.193	0.322	0.275	0.322	0.292	0.305
NCI-H1651	0.34	0.352	0.371	0.415	0.432	0.484	0.501	0.515	0.515	0.446	0.787	0.77	0.811	0.991	0.839	0.313	0.461	0.431	0.394	0.386
NCI-H1666	0.601	0.535	0.574	0.575	0.552	0.669	0.605	0.62	0.621	0.63	1.09	1.02	1.1	1	1.07	0.767	0.723	0.801	0.769	0.779
NCI-H1734	0.362	0.419	0.425	0.448	0.29	0.35	0.348	0.314	0.373	0.295	0.206	0.185	0.193	0.167	0.157	0.471	0.497	0.44	0.469	0.468
NCI-H1755	0.587	0.629	0.319	0.645	0.534	0.46	0.471	0.427	0.446	0.439	0.602	0.302	0.496	0.576	0.394	0.416	0.425	0.446	0.42	0.404
